Measured values: ChEMBL document CHEMBL2407022, “Advancement of Imidazo[1,2-a]pyridines with Improved Pharmacokinetics and Nanomolar Activity Against Mycobacterium tuberculosis” (ACS Med Chem Lett, 2013)
Values after ≈ are worked out from the molar mass of the structure shown. Active and inactive are the calls of the source. The calls are words filed in the database; no cut-off is given here.

Experiments:
[1] = tested on: Mycobacterium tuberculosis; assay: Antimycobacterial activity against Mycobacterium tuberculosis H37Rv expressing pCHERRY3 after 4 days by plate format assay; assay type: functional; settings: 96 h
[2] = tested on: Mycobacterium tuberculosis; assay: Antimycobacterial activity against isoniazid, rifampin, ethambutol, pyrazinamide, streptomycin, kanamycin and p-aminosalicylic acid-resistant Mycobacterium tuberculosis after 14 days; assay type: functional; settings: 336 h
[3] = tested on: Mycobacterium tuberculosis; assay: Antimycobacterial activity against isoniazid, rifampin, ethambutol, kanamycin and p-aminosalicylic acid-resistant Mycobacterium tuberculosis after 14 days; assay type: functional; settings: 336 h
[4] = tested on: Mycobacterium tuberculosis; assay: Antimycobacterial activity against drug-sensitive Mycobacterium tuberculosis clinical isolate 1 after 14 days; assay type: functional; settings: clinical isolate 1, 336 h
[5] = tested on: Mycobacterium tuberculosis; assay: Antimycobacterial activity against drug-sensitive Mycobacterium tuberculosis clinical isolate 2 after 14 days; assay type: functional; settings: clinical isolate 2, 336 h
[6] = Tmax in Balb/c mouse at 3 mg/kg, po; assay type: ADME, organism-based; set-up: dose 3 mg/kg, route oral; settings: in vivo
[7] = Drug metabolism in human liver microsomes assessed as monohydroxylations on imidazopyridine at 2 uM after 30 mins by LC/MS/MS analysis; assay type: ADME, Microsome; settings: 0.5 h
[8] = Drug metabolism in human liver microsomes at 2 uM after 30 mins by LC-MS analysis; assay type: ADME, Microsome; settings: read-out: Drug metabolism
[9] = Tmax in Balb/c mouse at 100 mg/kg, po; assay type: ADME, organism-based; set-up: dose 100 mg/kg, route oral; settings: in vivo
CYP3A4 = CYP3A4 (Homo sapiens, UniProt P11712); assay: Inhibition of CYP3A4 in human liver microsomes using midazolam as substrate at 10 uM after 10 mins; assay type: ADME, Microsome; settings: probe midazolam
CYP3A4, sequence (P11712 whole entry): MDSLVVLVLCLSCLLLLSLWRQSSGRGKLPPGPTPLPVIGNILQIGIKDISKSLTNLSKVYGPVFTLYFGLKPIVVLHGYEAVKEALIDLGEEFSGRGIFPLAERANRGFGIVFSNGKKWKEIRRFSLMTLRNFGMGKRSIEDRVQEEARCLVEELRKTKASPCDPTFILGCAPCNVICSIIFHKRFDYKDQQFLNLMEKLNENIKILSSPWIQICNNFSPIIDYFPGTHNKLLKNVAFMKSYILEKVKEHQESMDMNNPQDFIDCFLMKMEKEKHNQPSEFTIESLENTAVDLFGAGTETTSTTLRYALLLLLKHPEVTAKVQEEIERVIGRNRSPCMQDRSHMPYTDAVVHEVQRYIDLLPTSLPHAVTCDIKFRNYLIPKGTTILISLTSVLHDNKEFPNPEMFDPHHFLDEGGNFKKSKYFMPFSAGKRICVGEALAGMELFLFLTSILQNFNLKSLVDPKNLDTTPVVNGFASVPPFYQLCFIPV

Cytochrome P450 2C9 = Cytochrome P450 2C9 (Homo sapiens, UniProt P11712); assay: Time dependent inhibition of CYP3A4 in human liver microsomes using midazolam as substrate at 10 uM after 10 mins; assay type: ADME, Microsome
Cytochrome P450 2C9, sequence (P11712 whole entry): as above

[10] = Half life in Balb/c mouse at 3 mg/kg, po; assay type: ADME, organism-based; set-up: dose 3 mg/kg, route oral; settings: in vivo
[11] = Drug metabolism in mouse liver microsomes assessed as monohydroxylations on imidazopyridine at 2 uM after 30 mins by LC/MS/MS analysis; assay type: ADME, Microsome; settings: 0.5 h
[12] = Drug metabolism in mouse liver microsomes at 2 uM after 30 mins by LC-MS analysis; assay type: ADME, Microsome; settings: read-out: Drug metabolism
[13] = Drug metabolism in dog liver microsomes at 2 uM after 30 mins by LC-MS analysis; assay type: ADME, Canis lupus familiaris, Microsome; settings: read-out: Drug metabolism
[14] = Drug metabolism in rat liver microsomes assessed as monohydroxylations on imidazopyridine at 2 uM after 30 mins by LC/MS/MS analysis; assay type: ADME, Microsome; settings: 0.5 h
CYP2C9 = CYP2C9 (Homo sapiens, UniProt P11712); assay: Inhibition of CYP2C9 in human liver microsomes using diclofenac as substrate at 10 uM after 10 mins; assay type: ADME, Microsome; settings: probe diclofenac
CYP2C9, sequence (P11712 whole entry): as above

[15] = Half life in Balb/c mouse at 100 mg/kg, po; assay type: ADME, organism-based; set-up: dose 100 mg/kg, route oral; settings: in vivo
[16] = tested on: Mycobacterium tuberculosis; assay: Antimycobacterial activity against Mycobacterium tuberculosis H37Rv expressing pCHERRY3 after 4 days by plate format assay in presence of bovine serum albumin; assay type: functional, organism-based
[17] = Clearance in Balb/c mouse at 1 mg/kg, iv; assay type: ADME, organism-based; set-up: dose 1 mg/kg, route intravenous; settings: in vivo
[18] = Drug metabolism in rat liver microsomes at 2 uM after 30 mins by LC-MS analysis; assay type: ADME, Microsome; settings: read-out: Drug metabolism
CYP2D6 = CYP2D6 (Homo sapiens, UniProt P10635); assay: Inhibition of CYP2D6 in human liver microsomes using bufuralol as substrate at 10 uM after 10 mins; assay type: ADME, Microsome; settings: probe bufuralol
CYP2D6, sequence (P10635 whole entry): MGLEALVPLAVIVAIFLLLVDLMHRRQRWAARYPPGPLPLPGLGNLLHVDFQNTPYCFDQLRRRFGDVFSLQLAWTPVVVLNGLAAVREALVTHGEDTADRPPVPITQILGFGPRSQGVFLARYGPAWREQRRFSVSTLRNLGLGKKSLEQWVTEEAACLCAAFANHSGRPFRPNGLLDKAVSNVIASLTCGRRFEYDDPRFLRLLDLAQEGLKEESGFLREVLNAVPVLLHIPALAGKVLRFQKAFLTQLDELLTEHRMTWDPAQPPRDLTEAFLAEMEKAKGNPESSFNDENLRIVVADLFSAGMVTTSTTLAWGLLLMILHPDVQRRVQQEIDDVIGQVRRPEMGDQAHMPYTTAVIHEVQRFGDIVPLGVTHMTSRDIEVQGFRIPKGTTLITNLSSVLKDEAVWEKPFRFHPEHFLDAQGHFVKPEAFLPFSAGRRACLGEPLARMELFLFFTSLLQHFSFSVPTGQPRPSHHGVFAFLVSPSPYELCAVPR

[19] = Tmax in Balb/c mouse at 10 mg/kg, po; assay type: ADME, organism-based; set-up: dose 10 mg/kg, route oral; settings: in vivo
[20] = Half life in Balb/c mouse at 10 mg/kg, po; assay type: ADME, organism-based; set-up: dose 10 mg/kg, route oral; settings: in vivo

Compound: COc1cccc(NC(=O)c2c(C)nc3cc(C)ccn23)c1
- MIC99 [1]: > 20 µM

Compound: Cc1ccc2nc(C)c(C(=O)NCc3ccccc3)n2c1
- MIC99 [2]: < 0.04 µM
- MIC99 [1]: 0.006 µM (≈ 0.00168 µg/mL)
- MIC99 [3]: < 0.04 µM
- MIC99 [4]: 0.04 µM (≈ 0.0112 µg/mL)
- MIC99 [5]: < 0.04 µM

Compound: Cc1ccn2c(C(=O)NCc3ccc(S(N)(=O)=O)cc3)c(C)nc2c1
- MIC99 [1]: > 20 µM

Compound: Cc1ccn2c(C(=O)NCc3ncc(C(F)(F)F)cc3Cl)c(C)nc2c1
- Tmax [6]: 0.25 h
- MIC99 [2]: 6.5 µM (≈ 2.49 µg/mL)
- MIC99 [1]: 0.7 µM (≈ 0.268 µg/mL)
- Drug metabolism [7]: Active
- MIC99 [3]: 0.4 µM (≈ 0.153 µg/mL)
- metabolised at 0.5 h, 2 µM [8]: 0%
- Tmax [9]: 2 h
- inhibition at 10 min, 10 µM (CYP3A4): 0%
- inhibition (INH) (Cytochrome P450 2C9): Active
- half-life [10]: 5 h
- Drug metabolism [11]: Active
- metabolised at 0.5 h, 2 µM [12]: 79.9%
- metabolised at 0.5 h, 2 µM [13]: 41.2%
- Drug metabolism [14]: Active
- inhibition at 10 min, 10 µM (CYP2C9): 11.5%
- half-life [15]: 1.93 h
- Activity [16]: Active
- clearance [17]: 43.1 mL/min/kg
- metabolised at 0.5 h, 2 µM [18]: 19.3%
- inhibition at 10 min, 10 µM (CYP2D6): 2.8%

Compound: C[C@H]1COC2(CCN(c3nc(=O)c4cc(C(F)(F)F)cc([N+](=O)[O-])c4s3)CC2)O1 [BTZ-043]
- MIC99 [1]: 0.003 µM (≈ 0.00129 µg/mL)

Compound: Cc1ccc2nc(C(F)(F)F)c(C(=O)NCc3ccc(S(C)(=O)=O)cc3)n2c1
- MIC99 [1]: 0.9 µM (≈ 0.37 µg/mL)

Compound: Cc1ccc2nc(C)c(C(=O)NCc3ccc(S(C)(=O)=O)cc3)n2c1
- MIC99 [1]: 0.4 µM (≈ 0.143 µg/mL)

Compound: O=[N+]([O-])c1cn2c(n1)OC[C@@H](OCc1ccc(OC(F)(F)F)cc1)C2 [PRETOMANID]
- MIC99 [2]: 0.5 µM (≈ 0.18 µg/mL)
- MIC99 [1]: 0.6 µM (≈ 0.216 µg/mL)
- MIC99 [3]: 0.5 µM (≈ 0.18 µg/mL)
- MIC99 [4]: 0.5 µM (≈ 0.18 µg/mL)
- MIC99 [5]: > 13.9 µM

Compound: Cc1nc2c(C)cccn2c1C(=O)NCc1ccc(Oc2ccc(F)cc2)cc1
- MIC99 [1]: 0.1 µM (≈ 0.0389 µg/mL)

Compound: Cc1ccn2c(C(=O)NCc3ccc(Oc4ccc(F)cc4)cc3)c(C)nc2c1
- Tmax [6]: 0.5 h
- MIC90 [2]: 0.03 µM (≈ 0.0117 µg/mL)
- MIC99 [1]: 0.004 µM (≈ 0.00156 µg/mL)
- Drug metabolism [7]: Active
- MIC99 [3]: < 0.03 µM
- MIC99 [4]: < 0.03 µM
- MIC99 [5]: < 0.03 µM
- Tmax [19]: 0.5 h
- inhibition (INH) (Cytochrome P450 2C9): Active
- Drug metabolism [11]: Active
- Drug metabolism [14]: Active
- Activity [16]: Active
- half-life [20]: 13.2 h

Compound: CO[C@H]1/C=C/O[C@@]2(C)Oc3c(C)c(O)c4c(O)c(c(/C=N/N5CCN(C)CC5)c(O)c4c3C2=O)NC(=O)/C(C)=C\C=C\[C@H](C)[C@H](O)[C@@H](C)[C@@H](O)[C@@H](C)[C@H](OC(C)=O)[C@@H]1C [RIFAMPIN]
- MIC99 [1]: 0.003 µM (≈ 0.00247 µg/mL)

Compound: NNC(=O)c1ccncc1 [ISONIAZID]
- MIC99 [1]: 0.3 µM (≈ 0.0411 µg/mL)

Compound: Cc1ccn2c(C(=O)NCc3ccccc3)c(C)nc2c1
- MIC99 [1]: 0.2 µM (≈ 0.0559 µg/mL)
- Activity [16]: Active
- metabolised at 0.5 h, 2 µM [18]: 71%

Compound: COc1cccc(CNC(=O)c2c(C)nc3cc(Cl)ccn23)c1
- MIC99 [1]: 1.1 µM (≈ 0.363 µg/mL)

Compound: Cc1ccc2nc(C)c(C(=O)NCc3ccc(Oc4ccc(F)cc4)cc3)n2c1
- MIC99 [1]: 0.005 µM (≈ 0.00195 µg/mL)
